# From patent US20090093469A1, “Phenylaminopropanol Derivatives and Methods of Their Use” (WYETH, priority 2004, published 2009)
# Where a name gives a salt, the structure may show the parent alone.
# Molecular target: T1, hNET (Homo sapiens, UniProt P23975)
# T1 construct: expressed in transfected cells
# Assay: Norepinephrine (NE) uptake assay in MDCK-Net6 cells stably transfected with human hNET
# Assay type: cell-based
# Conditions: MDCK-Net6, read-out: % Inhibition @ 1 μM (hNET)
# T1 sequence (P23975 whole entry): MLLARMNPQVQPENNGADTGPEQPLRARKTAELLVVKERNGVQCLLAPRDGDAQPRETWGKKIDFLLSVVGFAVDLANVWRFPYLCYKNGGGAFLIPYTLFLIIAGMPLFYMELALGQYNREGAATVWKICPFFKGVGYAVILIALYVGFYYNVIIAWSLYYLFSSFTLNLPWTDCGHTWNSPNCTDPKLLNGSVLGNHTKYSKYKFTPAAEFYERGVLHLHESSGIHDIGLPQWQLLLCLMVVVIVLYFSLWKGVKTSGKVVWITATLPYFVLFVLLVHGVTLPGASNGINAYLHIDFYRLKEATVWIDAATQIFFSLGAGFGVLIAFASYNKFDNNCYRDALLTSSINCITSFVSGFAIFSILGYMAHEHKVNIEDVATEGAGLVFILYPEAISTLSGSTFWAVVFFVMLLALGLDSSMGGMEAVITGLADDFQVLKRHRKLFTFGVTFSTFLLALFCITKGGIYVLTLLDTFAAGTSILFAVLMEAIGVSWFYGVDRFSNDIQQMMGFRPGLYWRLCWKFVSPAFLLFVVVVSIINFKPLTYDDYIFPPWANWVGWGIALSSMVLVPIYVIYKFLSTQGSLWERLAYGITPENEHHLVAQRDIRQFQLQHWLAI
row,SMILES,inhibition at 1 µM [%]
1,"CNC[C@@H](O)[C@H](c1ccccc1)n1c(=O)n(C2CCCC2)c2ccccc21 [Example 202, 1-Cyclopentyl-3-[(1S,2R)-2-hydroxy-3-(methylamino)-1-phenylpropyl]-1,3-dihydro-2H-benzimidazol-2-one hydrochloride]",92.7
2,"CNC[C@@H](O)[C@H](c1ccccc1)n1ccc2cc(Cl)ccc21 [Example 152, (1S,2R)-1-(5-chloro-1H-indol-1-yl)-3-(methylamino)-1-phenylpropan-2-ol hydrochloride]",96.2
3,"CNC[C@@H](O)[C@@H](c1ccccc1)n1ccc2cc(Cl)ccc21 (racemic) [Example 27, hydrochloride]",75.4
4,"CNC[C@@H](O)[C@H](c1ccccc1)n1c(=O)n(C)c2ccccc21 [Example 205, 1-[(1S,2R)-2-hydroxy-3-(methylamino)-1-phenylpropyl]-3-methyl-1,3-dihydro-2H-benzimidazol-2-one hydrochloride]",82.9
5,"CNC[C@@H](O)[C@H](c1cccc(F)c1)n1ccc2cc(C)ccc21 [Example 92, ((1S,2R)-1-(3-fluorophenyl)-3-(methylamino)-1-(5-methyl-1H-indol-1-yl)propan-2-ol hydrochloride]",85.8
6,"Cc1cn([C@H](c2ccccc2)[C@@H](O)CN)c2ccccc12 (racemic) [Example 24, (1RS,2SR)-3-amino-1-(3-methyl-1H-indol-1-yl)-1-phenylpropan-2-ol hydrochloride]",57.2

# Same assay, conditions: hydrochloride, 1 µM
row,SMILES,% Inhibition @ 1 μM (hNET) [%]
1,"CNC[C@@H](O)[C@@H](c1ccccc1)n1ccc2ccccc21 [Example 29, (1R,2R)-1-(1H-indol-1-yl)-3-(methylamino)-1-phenylpropan-2-ol hydrochloride]",89.5

# Same assay, conditions: test compound 1 μM; [3H]NE uptake, MDCK-Net6 cells; read-out: % Inhibition @ 1 μM (hNET)
row,inhibition at 1 µM [%],SMILES
1,31.6,"NC[C@H](O)[C@@H](c1ccccc1)n1ccc2cc(F)ccc21 (racemic) [Example 19, (1RS,2SR)-3-amino-1-(5-fluoro-1H-indol-1-yl)-1-phenylpropan-2-ol hydrochloride]"
2,30.1,"CNC[C@H](O)[C@@H](c1ccccc1)n1cc(C#N)c2ccccc21 (racemic) [Example 28, 1-[(1RS,2SR)-2-hydroxy-3-(methylamino)-1-phenylpropyl]-1H-indole-3-carbonitrile hydrochloride]"
3,91.5,"CNC[C@@H](O)[C@H](c1ccccc1)n1ccc2c(Br)cccc21 [Example 124, (1S,2R)-1-(4-bromo-1H-indol-1-yl)-3-(methylamino)-1-phenylpropan-2-ol hydrochloride]"
4,67.9,"Cc1cn([C@@H](c2ccccc2)[C@H](O)CN)c2ccc(F)cc12 (racemic) [Example 118, (1SR,2RS)-3-amino-1-(5-fluoro-3-methyl-1H-indol-1-yl)-1-phenylpropan-2-ol hydrochloride]"
5,99.1,"CNC[C@@H](O)[C@H](c1cc(F)cc(F)c1)N1CCc2ccc(F)cc21 [Example 174, (1S,2R)-1-(3,5-difluorophenyl)-1-(6-fluoro-2,3-dihydro-1H-indol-1-yl)-3-(methylamino)propan-2-ol hydrochloride]"
6,71.8,"CNC[C@@H](O)[C@H](c1ccccc1)n1ccc2ccc(Br)cc21 [Example 129, (1S,2R)-1-(6-bromo-1H-indol-1-yl)-3-(methylamino)-1-phenylpropan-2-ol hydrochloride]"
